The text below walks through data of patent US4029805A, “Semisynthetic penicillins” (Hoffmann-La Roche Inc., priority 1976, dated 1977).

The structures appear in SMILES notation. Counter-ions that a name gives are not always drawn. Like-named read-outs stand apart in the source and are kept apart here.

For orientation: LD50 means the dose expected to kill half of the subjects tested.

The nature of series [1]: physchem. The conditions noted are these: water. Here is the method:
To illustrate the relative stability of the compounds of this invention in aqueous solution at room temperature the sodium salts of the compounds were tested as 20% by weight aqueous solutions for activity by microbiological assay using B. subtilis as the test organism and compared to 10% and 20% aqueous solutions of amoxicillin sodium salt and 10% aqueous solution of the acetone derivative of amoxicillin.

Another series has as its system S. aureus. The series is described as follows: Curative dose against systemic S. aureus infection. Format: in vivo, mice. The conditions noted are these: Staphylococcus aureus, in Mus musculus, read-out: CD50 (the source's name).
The next series concerns S. pyogenes. In words: Curative dose against systemic S. pyogenes infection. It is filed as in vivo, mice. The settings on record: Streptococcus pyogenes, in Mus musculus, read-out: CD50 (the source's name).
In the next series the test system is D. pneumoniae. The series is described as follows: Curative dose against systemic D. pneumoniae infection. It is filed as in vivo, mice. The conditions noted are these: Streptococcus pneumoniae, in Mus musculus, read-out: CD50 (the source's name).
The test system of another series is K. pneumoniae. The series is described as follows: Curative dose against systemic K. pneumoniae infection. Format: in vivo, mice. The settings on record: Klebsiella pneumoniae, in Mus musculus, read-out: CD50 (the source's name).
Series [2] deals with S. typhosa. In words: Curative dose against systemic S. typhosa infection. Format: in vivo, mice. The conditions noted are these: Mus musculus, po, read-out: CD50 (the source's name). As for the experimental part:
(§1) In order to illustrate the relative activity of the compounds of this invention as compared to amoxicillin, the compounds, represented by the acetaldehyde derivative, were tested orally against systemic bacterial infections of mice with the following results. The CD50 is the curative dose in 50% of the animals treated against a challenge organism.

The next series deals with S. schottmuelleri. In words: Curative dose against systemic S. schottmuelleri infection. It is filed as in vivo, mice. The settings on record: Mus musculus, read-out: CD50 (the source's name).
The test system of series [3] is E. coli. In words: Curative dose against systemic E. coli infection. The settings on record: Escherichia coli, in Mus musculus, read-out: CD50 (the source's name). Format: in vivo, mice.
For series [4], the system named is S. typhosa. In words: Curative dose against systemic S. typhosa infection. It is filed as in vivo, mice. The conditions noted are these: Mus musculus, sc, read-out: CD50 (the source's name).
Series [5] is described as follows: physchem. It is filed as physicochemical. The conditions noted are these: 5% dextrose solution, read-out: antibacterial activity retained in a 24 hour period. As for the experimental part: The antibacterial activity retained in a 24 hour period by the acetaldehyde derivative when dissolved in 5% dextrose solutions at 0.5 and 1.0% concentration is 83% and 80% respectively. The sodium salt of amoxicillin retains less than 40% activity under the same conditions.

For series [6], the system named is E. coli. The series is described as follows: Curative dose against systemic E. coli infection. Format: in vivo, mice. The conditions noted are these: Escherichia coli, in Mus musculus, po. Here is the method: as §1
The mark [7] stands for this setting: po, butyraldehyde derivative comparison.
The mark [8] stands for this setting: sc, butyraldehyde derivative comparison.
[9] abbreviates: butyraldehyde derivative comparison.
The mark [10] stands for this setting: Table 3(b), po, acetaldehyde derivative comparison.
[11] abbreviates: Table 3(b), sc, acetaldehyde derivative comparison.
[12] abbreviates: Table 3(b), acetaldehyde derivative comparison.

Regarding `CCCC1N[C@H](c2ccc(O)cc2)C(=O)N1[C@@H]1C(=O)N2[C@@H]1SC(C)(C)[C@@H]2C(=O)O` (stereo partly drawn) [Butyraldehyde derivative], in “physchem [1]”, the remaining at 1 h came to 95%. The same molecule showed a remaining at 2 h in the series “physchem [1]” of 83%. Besides, the remaining at 6 h in the series “physchem [1]” was determined as 83%. In “physchem [1]”, this molecule yielded a remaining at 24 h of 70%. The ED50 in the series on S. aureus (setting [7]) is 0.2 mg/kg; with S. aureus (setting [8]), 0.11 mg/kg; with S. pyogenes (setting [7]) it was under 0.05 mg/kg; in the series with S. pyogenes (setting [8]), 0.01 mg/kg; in the series on D. pneumoniae (setting [7]), 2.1 mg/kg; in the series with D. pneumoniae (setting [8]), 2.5 mg/kg. For the same molecule, the ED50 in the series with K. pneumoniae (setting [7]) was found to be 46 mg/kg; in the series on K. pneumoniae (setting [8]), 16 mg/kg; in the series on S. typhosa [2] (setting [9]) it was 2.9 mg/kg; with S. schottmuelleri (setting [7]), 5.7 mg/kg; with S. schottmuelleri (setting [8]), 3.2 mg/kg; with E. coli [3] (setting [7]) it was 12 mg/kg. Besides, the ED50 in the series on E. coli [3] (setting [8]) worked out at 3.9 mg/kg; in the series on S. typhosa [4] (setting [9]), 0.85 mg/kg. Also, the LD50 in “in vivo” (ip) is 7270 mg/kg; in “in vivo” (po) it was over 10000 mg/kg; in the series “in vivo” (sc), 10000 mg/kg.

Turning to `CC1N[C@H](c2ccc(O)cc2)C(=O)N1[C@@H]1C(=O)N2[C@@H]1SC(C)(C)[C@@H]2C(=O)O` (stereo partly drawn) [Acetaldehyde derivative], the remaining at 1 h in “physchem [1]” came out at 100%. This molecule registered a remaining at 2 h in the series “physchem [1]” of 99%. The molecule also displayed a remaining at 4 h in the series “physchem [1]” of 99%. The molecule also yielded a remaining at 6 h in “physchem [1]” of 98%. For the same molecule, the remaining at 6.5 h in the series “physchem [1]” was determined as 98%. Also, the values for the remaining at 24 h in the series “physchem [1]”, in the series “physchem [5]” (0.5% concentration) and in “physchem [5]” (1.0% concentration) were 94%, 83% and 80%, respectively. Also, the ED50 in the series on S. aureus (setting [10]) is 0.77 mg/kg; with S. aureus (setting [11]) it was 1.3 mg/kg; with S. pyogenes (setting [10]), 1.7 mg/kg; in the series on S. pyogenes (setting [11]) it was under 0.05 mg/kg; in the series with D. pneumoniae (setting [10]), 12 mg/kg; with D. pneumoniae (setting [11]), 0.76 mg/kg. Also, the ED50 with E. coli [6] (Table 3(b), acetaldehyde derivative comparison, read-out: CD50 (the source's name)) is 4.6 mg/kg; with E. coli [6] (read-out: CD50, Table 2, PO, mice) it was 5 mg/kg; in the series on K. pneumoniae (setting [10]), 17 mg/kg; with K. pneumoniae (setting [11]) it was 11 mg/kg; in the series with S. typhosa [2] (setting [12]) it was 8.8 mg/kg; with S. schottmuelleri (setting [10]) it was 6.4 mg/kg. Besides, the ED50 in the series with S. schottmuelleri (setting [11]) came out at 3.4 mg/kg; in the series with E. coli [3] (sc, Table 3(b), sc, acetaldehyde derivative comparison), 6.9 mg/kg; in the series on S. typhosa [4] (setting [12]) it was 6.5 mg/kg. Moreover, the LD50 in “in vivo” (ip) is 9200 mg/kg; in “in vivo” (po) it was over 10000 mg/kg; in “in vivo” (sc) it was over 10000 mg/kg.

With `CC1(C)S[C@@H]2[C@H](NC(=O)[C@H](N)c3ccc(O)cc3)C(=O)N2[C@H]1C(=O)O` [Amoxicillin sodium salt], in “physchem [1]”, the remaining at 1 h was determined as 100%, the remaining at 2 h was determined as 91%, the remaining at 4 h was 65% and the remaining at 6 h was found to be 59%. In the series “physchem [1]”, this molecule displayed a remaining at 6.5 h of 58% and a remaining at 24 h of 38%. In “physchem [5]” (5% dextrose solutions, same conditions (0.5 and 1.0%)), the remaining at 24 h is under 40%.
